Results on two compounds are retold here after patent US12011421B2, “Curcuphenol compounds for increasing MHC-I expression” (Cava Healthcare Inc., priority 2013, dated 2024).

Series [1] relates to MHC-I. Briefly: MHC-I expression in TC1/A9 murine lung tumor cells. Type of series: cell-based. The note with it: FIG. 11A. As for the experimental part:
(§1) Curcuphenol and four curcuphenol analogs (see FIG. 10) were synthesized and tested for the ability to increase MHC-I expression in TC1/A9 murine lung tumor cells. Toxicity was also measured by propidium iodide (PI) exclusion.

Series [2] relates to TC1/A9 murine lung tumor cells. Nature of the series: Cell toxicity in A9 cells by PI exclusion and intact cell number. Type of series: cell-based. Conditions: FIG. 11B. As for the experimental part:
as §1

Each structure is given as a SMILES string.

As to `CC(C)=CCC[C@H](C)c1ccc(C)cc1O` (stereo in doubt) [curcuphenol, phenol,2-(1,5-dimethyl-4-hexenyl)-5-methyl-, (S)—], in series [1], the “MHC-I expression relative to controls” value is recorded as “significantly increasing MHC-I expression”. In addition, in series [2], the “toxicity by propidium iodide (PI) exclusion and intact cell number” value is recorded as “acceptable levels of toxicity”.
On the same counts, the results for `CC(C)=CCCCc1ccc(C)cc1O` [PC-02/113] are “significantly increasing MHC-I expression” and “acceptable levels of toxicity”.
